Where two headings read alike, the source gives them in different places.
Key:
Type in all cases: cell-based, human
[1] = tested on: HepG2 cells; assay: MTT anti-proliferative assay, HepG2; settings: read-out: Anti-proliferative activity IC50, HepG2
[2] = tested on: MCF-7 cells; assay: MTT anti-proliferative assay, MCF-7; settings: read-out: Anti-proliferative activity IC50, MCF-7
[3] = tested on: A549 cells; assay: cells; settings: read-out: Anti-proliferative activity IC50, A549
[4] = tested on: H1975 cells; settings: H1975, MTT

SMILES | IC50 ([1]; Homo sapiens, HepG2, 72 h) | IC50 ([2]; Homo sapiens, MCF7, 72 h) | IC50 ([3]; Homo sapiens, A549, 72 h) | IC50 ([1]; HepG2, MTT, 72 h) | IC50 ([2]; MCF-7, MTT, 72 h) | IC50 ([3]; A549, MTT, 72 h) | IC50 ([4]; read-out: Anti-proliferative activity IC50, H1975, 72 h) | inhibitory activity against H1975 cells (in words) [4]
O=C(N/N=C/c1ncc(N2CCOCC2)s1)Nc1cc2c(Nc3ccc(F)c(Cl)c3)ncnc2cc1O[C@H]1CCOC1 [Compound 13, (S,E)-N-(4-((3-chloro-4-fluorophenyl)amino)-7-((tetrahydrofuran-3-yl)oxy)quinazolin-6-yl)-2-((5-morpholinothiazol-2-yl)methylene)hydrazine-1-carboxamide] | 1.35 ± 0.31 µM | 1.35 ± 0.14 µM | 1.48 ± 0.19 µM |  |  |  |  | moderate inhibitory activity
O=C(N/N=C/c1ccc(N2CCCC2)o1)Nc1cc2c(Nc3ccc(F)c(Cl)c3)ncnc2cc1O[C@H]1CCOC1 [Compound 15, (S,E)-N-(4-((3-chloro-4-fluorophenyl)amino)-7-((tetrahydrofuran-3-yl)oxy)quinazolin-6-yl)-2-((5-(pyrrolidin-1-yl)furan-2-yl)methylene)hydrazine-1-carboxamide] | 8.17 ± 0.98 µM | 14 ± 0.78 µM | 10.5 ± 0.77 µM |  |  |  |  | poorer cellular activity
CN(C)c1ccc(/C=N/NC(=O)Nc2cc3c(Nc4ccc(F)c(Cl)c4)ncnc3cc2O[C@H]2CCOC2)s1 [Compound 16, (S,E)-N-(4-((3-chloro-4-fluorophenyl)amino)-7-((tetrahydrofuran-3-yl)oxy)quinazolin-6-yl)-2-((5-(dimethylamino)thiophen-2-yl)methylene)hydrazine-1-carboxamide] | 2.43 ± 0.45 µM | 3.68 ± 0.49 µM | 2.5 ± 0.36 µM |  |  |  |  | poorer cellular activity
O=C(N/N=C/c1ccc(N2CCCC2)nc1)Nc1cc2c(Nc3ccc(F)c(Cl)c3)ncnc2cc1O[C@H]1CCOC1 [Compound 18, (S,E)-N-(4-((3-chloro-4-fluorophenyl)amino)-7-((tetrahydrofuran-3-yl)oxy)quinazolin-6-yl)-2-((6-(pyrrolidin-1-yl)pyridin-3-yl)methylene)hydrazine-1-carboxamide] | 5.81 ± 0.61 µM | 12.4 ± 1.25 µM | 19.2 ± 1.46 µM |  |  |  |  | 
O=C(N/N=C/c1ccc(CN2CCCC2)cc1)Nc1cc2c(Nc3ccc(F)c(Cl)c3)ncnc2cc1O[C@H]1CCOC1 [Compound 27, (S,E)-N-(4-((3-chloro-4-fluorophenyl)amino)-7-((tetrahydrofuran-3-yl)oxy)quinazolin-6-yl)-2-(4-(pyrrolidin-1-ylmethyl)benzylidene)hydrazine-1-carboxamide] | > 100 µM | > 100 µM | > 100 µM |  |  |  |  | 
O=C(N/N=C/c1ccc(CN2CCCCC2)cc1)Nc1cc2c(Nc3ccc(F)c(Cl)c3)ncnc2cc1O[C@H]1CCOC1 [Compound 28, (S,E)-N-(4-((3-chloro-4-fluorophenyl)amino)-7-((tetrahydrofuran-3-yl)oxy)quinazolin-6-yl)-2-(4-(piperidin-1-ylmethyl)benzylidene)hydrazine-1-carboxamide] | 3.13 ± 0.45 µM | 4.3 ± 0.63 µM | 2.25 ± 0.32 µM |  |  |  |  | 
O=C(N/N=C/c1ccc(CN2CCOCC2)cc1)Nc1cc2c(Nc3ccc(F)c(Cl)c3)ncnc2cc1O[C@H]1CCOC1 [Compound 29, (S,E)-N-(4-((3-chloro-4-fluorophenyl)amino)-7-((tetrahydrofuran-3-yl)oxy)quinazolin-6-yl)-2-(4-(morpholinomethyl)benzylidene)hydrazine-1-carboxamide] | > 100 µM | > 100 µM | > 100 µM |  |  |  |  | 
CN1CCN(Cc2ccc(/C=N/NC(=O)Nc3cc4c(Nc5ccc(F)c(Cl)c5)ncnc4cc3O[C@H]3CCOC3)cc2)CC1 [Compound 30, (S,E)-N-(4-((3-chloro-4-fluorophenyl)amino)-7-((tetrahydrofuran-3-yl)oxy)quinazolin-6-yl)-2-(4-((4-methylpiperazin-1-yl)methyl)benzylidene)hydrazine-1-carboxamide] | 17.5 ± 1.62 µM | 21 ± 1.68 µM | 24.9 ± 1.66 µM |  |  |  |  | 
CCN(CC)CCCOc1ccc(/C=N/NC(=O)Nc2cc3c(Nc4ccc(F)c(Cl)c4)ncnc3cc2O[C@H]2CCOC2)cc1 [Compound 50, (S,E)-N-(4-((3-chloro-4-fluorophenyl)amino)-7-((tetrahydrofuran-3-yl)oxy)quinazolin-6-yl)-2-(4-(3-(diethylamino)propoxy)benzylidene)hydrazine-1-carboxamide] | 1.08 ± 0.17 µM | 1.23 ± 0.37 µM | 1.11 ± 0.14 µM |  |  |  |  | 
O=C(N/N=C/c1ccc(OCCCN2CCCC2)cc1)Nc1cc2c(Nc3ccc(F)c(Cl)c3)ncnc2cc1O[C@H]1CCOC1 [Compound 51, (S,E)-N-(4-((3-chloro-4-fluorophenyl)amino)-7-((tetrahydrofuran-3-yl)oxy)quinazolin-6-yl)-2-(4-(3-(pyrrolidin-1-yl)propoxy)benzylidene)hydrazine-1-carboxamide] | 17 ± 1.04 µM | 28.5 ± 1.27 µM | 33.8 ± 1.14 µM |  |  |  |  | 
O=C(N/N=C/c1ccc(OCCCN2CCCCC2)cc1)Nc1cc2c(Nc3ccc(F)c(Cl)c3)ncnc2cc1O[C@H]1CCOC1 [Compound 52, (S,E)-N-(4-((3-chloro-4-fluorophenyl)amino)-7-((tetrahydrofuran-3-yl)oxy)quinazolin-6-yl)-2-(4-(3-(piperidin-1-yl)propoxy)benzylidene)hydrazine-1-carboxamide] | 2.28 ± 0.26 µM | 2.56 ± 0.46 µM | 4.65 ± 0.39 µM |  |  |  |  | 
O=C(N/N=C/c1ccc(OCCCN2CCOCC2)cc1)Nc1cc2c(Nc3ccc(F)c(Cl)c3)ncnc2cc1O[C@H]1CCOC1 [Compound 53, (S,E)-N-(4-((3-chloro-4-fluorophenyl)amino)-7-((tetrahydrofuran-3-yl)oxy)quinazolin-6-yl)-2-(4-(3-morpholinopropoxy)benzylidene)hydrazine-1-carboxamide] | > 100 µM | > 100 µM | > 100 µM |  |  |  |  | 
CN1CCN(CCCOc2ccc(/C=N/NC(=O)Nc3cc4c(Nc5ccc(F)c(Cl)c5)ncnc4cc3O[C@H]3CCOC3)cc2)CC1 [Compound 54, (S,E)-N-(4-((3-chloro-4-fluorophenyl)amino)-7-((tetrahydrofuran-3-yl)oxy)quinazolin-6-yl)-2-(4-(3-(4-methylpiperazin-1-yl)propoxy)benzylidene)hydrazine-1-carboxamide] | 41.2 ± 2.04 µM | 38.4 ± 1.26 µM | 40 ± 2.14 µM |  |  |  |  | 

Now from value to molecule, other results behind:

IC50 ([1]; Homo sapiens, HepG2, 72 h) | IC50 ([2]; Homo sapiens, MCF7, 72 h) | IC50 ([3]; Homo sapiens, A549, 72 h) | IC50 ([1]; HepG2, MTT, 72 h) | IC50 ([2]; MCF-7, MTT, 72 h) | IC50 ([3]; A549, MTT, 72 h) | IC50 ([4]; read-out: Anti-proliferative activity IC50, H1975, 72 h) | SMILES | inhibitory activity against H1975 cells (in words) [4]
0.72 ± 0.19 µM | 2.63 ± 0.16 µM | 2.84 ± 0.22 µM |  |  |  |  | COc1cc2ncnc(Nc3ccc(F)c(Cl)c3)c2cc1NC(=O)N/N=C/c1ccc(N(C)C)cc1 [Compound 9, (E)-N-(4-((3-chloro-4-fluorophenyl)amino)-7-methoxyquinazolin-6-yl)-2-(4-(dimethylamino)benzylidene)hydrazine-1-carboxamide] | poorer cellular activity
0.14 ± 0.08 µM | 0.61 ± 0.12 µM | 1.51 ± 0.13 µM |  |  |  |  | CN(C)c1ccc(/C=N/NC(=O)Nc2cc3c(Nc4ccc(F)c(Cl)c4)ncnc3cc2O[C@H]2CCOC2)cc1 [Compound 10, (S,E)-N-(4-((3-chloro-4-fluorophenyl)amino)-7-((tetrahydrofuran-3-yl)oxy)quinazolin-6-yl)-2-(4-(dimethylamino)benzylidene)hydrazine-1-carboxamide] | moderate inhibitory activity
11.5 ± 1.16 µM | 15.4 ± 1.14 µM | 31.4 ± 2.12 µM |  |  |  |  | CCN(CC)c1ccc(/C=N/NC(=O)Nc2cc3c(Nc4ccc(F)c(Cl)c4)ncnc3cc2OC)cc1 [Compound 11, (E)-N-(4-((3-chloro-4-fluorophenyl)amino)-7-methoxyquinazolin-6-yl)-2-(4-(diethylamino)benzylidene)hydrazine-1-carboxamide] | 
0.31 ± 0.13 µM | 0.35 ± 0.09 µM | 0.28 ± 0.12 µM |  |  |  |  | CCN(CC)c1ccc(/C=N/NC(=O)Nc2cc3c(Nc4ccc(F)c(Cl)c4)ncnc3cc2O[C@H]2CCOC2)cc1 [Compound 12, (S,E)-N-(4-((3-chloro-4-fluorophenyl)amino)-7-((tetrahydrofuran-3-yl)oxy)quinazolin-6-yl)-2-(4-(diethylamino)benzylidene)hydrazine-1-carboxamide] | moderate inhibitory activity
 |  |  | 13.2 ± 1.31 µM | 12.9 ± 1.12 µM | 14.6 ± 1.21 µM | 35.3 ± 2.35 µM | COc1cc2ncnc(Nc3ccc(F)c(Cl)c3)c2cc1NC(=O)N/N=C/c1ccc(N2CCCC2)nc1 [Compound 17, (E)-N-(4-((3-chloro-4-fluorophenyl)amino)-7-methoxyquinazolin-6-yl)-2-((6-(pyrrolidin-1-yl)pyridin-3-yl)methylene) hydrazine-1-carboxamide] | 
59.5 ± 4.75 µM | 31.1 ± 2.55 µM | 24.2 ± 2.27 µM |  |  |  |  | COc1cc2ncnc(Nc3ccc(F)c(Cl)c3)c2cc1NC(=O)N/N=C/c1ccc(CN2CCCCC2)cc1 [Compound 22, (E)-N-(4-((3-chloro-4-fluorophenyl)amino)-7-methoxyquinazolin-6-yl)-2-(4-(piperidin-1-ylmethyl)benzylidene)hydrazine-1-carboxamide] | 
> 100 µM | > 100 µM | > 100 µM |  |  |  |  | COc1cc2ncnc(Nc3ccc(F)c(Cl)c3)c2cc1NC(=O)N/N=C/c1ccc(CN2CCOCC2)cc1 [Compound 23, (E)-N-(4-((3-chloro-4-fluorophenyl)amino)-7-methoxyquinazolin-6-yl)-2-(4-(morpholinomethyl)benzylidene)hydrazine-1-carboxamide] | 
53.6 ± 4.75 µM | 36.9 ± 3.54 µM | 23.1 ± 1.54 µM |  |  |  |  | CCN(CC)Cc1ccc(/C=N/NC(=O)Nc2cc3c(Nc4ccc(F)c(Cl)c4)ncnc3cc2O[C@H]2CCOC2)cc1 [Compound 26, (S,E)-N-(4-((3-chloro-4-fluorophenyl)amino)-7-((tetrahydrofuran-3-yl)oxy)quinazolin-6-yl)-2-(4-((diethylamino)methyl)benzylidene)hydrazine-1-carboxamide] | 

Source: paper PMC6282443 (Journal of Enzyme Inhibition and Medicinal Chemistry, 2018)
